Active and inactive are the calls of the source. No cut-off for these calls is given here.
Tests used:
[1] = system: A549; assay: Induction of ROS generation in human A549 cells assessed as fold increase in ROS level at 9 uM after 24 hrs by DCFH-DA staining based flow cytometric analysis relative to control; format: functional
[2] = system: A549; assay: Induction of apoptosis in human A549 cells assessed as late apoptotic cells at 6 uM incubated for 24 hrs by annexin V-FITC and propidium iodide staining based flow cytometry analysis (reference value: 1.4 %); format: functional
[3] = system: A549; assay: Induction of apoptosis in human A549 cells assessed as early apoptotic cells at 9 uM incubated for 24 hrs by annexin V-FITC and propidium iodide staining based flow cytometry analysis (reference value: 0.5 %); format: functional
[4] = system: A549; assay: Inhibition of colony formation in human A549 cells incubated for 24 hrs by crystal violet staining based assay; format: functional, cell-based; conditions: dose 2-10 µM
[5] = Half life in rat at 0.5 mg/kg, iv; format: ADME, organism-based; conditions: in vivo
[6] = system: A549; assay: Induction of apoptosis in human A549 cells assessed as increase in cleaved caspase-3 level at 3 to 9 uM incubated for 24 hrs by Western blot analysis; format: functional, cell-based; conditions: dose 3-9 µM
[7] = target: T1, Interleukin-6 receptor subunit beta (Homo sapiens) (UniProt P40189); assay: Inhibition of GP130 in human A549 cells assessed as decrease in STAT3 phosphorylation at Y705 residue at 3 to 9 uM incubated for 24 hrs by western blot analysis; format: cell-based; conditions: dose 3-9 µM
T1 sequence (whole entry): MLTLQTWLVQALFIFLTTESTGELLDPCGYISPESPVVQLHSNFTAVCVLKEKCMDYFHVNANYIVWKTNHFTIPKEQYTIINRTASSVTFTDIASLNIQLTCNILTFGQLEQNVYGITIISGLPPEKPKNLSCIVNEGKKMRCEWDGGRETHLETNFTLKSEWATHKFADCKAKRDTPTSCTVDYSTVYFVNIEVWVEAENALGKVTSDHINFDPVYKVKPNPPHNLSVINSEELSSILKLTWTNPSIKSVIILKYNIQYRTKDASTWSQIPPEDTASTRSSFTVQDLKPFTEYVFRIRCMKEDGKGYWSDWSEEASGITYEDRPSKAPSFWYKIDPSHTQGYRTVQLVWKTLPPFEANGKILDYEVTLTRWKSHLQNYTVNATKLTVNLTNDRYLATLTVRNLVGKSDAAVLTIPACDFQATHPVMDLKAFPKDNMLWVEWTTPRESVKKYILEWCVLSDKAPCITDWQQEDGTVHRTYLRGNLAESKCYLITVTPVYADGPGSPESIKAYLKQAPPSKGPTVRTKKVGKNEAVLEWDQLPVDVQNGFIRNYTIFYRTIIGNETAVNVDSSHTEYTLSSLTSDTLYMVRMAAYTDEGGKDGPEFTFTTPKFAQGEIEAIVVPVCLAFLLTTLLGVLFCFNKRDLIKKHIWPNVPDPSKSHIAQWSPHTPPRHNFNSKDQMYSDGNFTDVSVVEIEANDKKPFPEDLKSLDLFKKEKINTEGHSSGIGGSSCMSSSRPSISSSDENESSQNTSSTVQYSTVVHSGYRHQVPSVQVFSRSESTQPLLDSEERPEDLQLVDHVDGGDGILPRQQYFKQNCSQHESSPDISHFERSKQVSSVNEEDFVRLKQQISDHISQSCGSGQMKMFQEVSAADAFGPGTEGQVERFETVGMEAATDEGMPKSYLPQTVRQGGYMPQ

[8] = Volume of distribution in rat at 0.5 mg/kg, iv; format: ADME, organism-based; conditions: in vivo
[9] = Mean residence time in rat at 5 mg/kg, ig; format: ADME, organism-based; conditions: in vivo, po
[10] = system: A549; assay: Induction of apoptosis in human A549 cells assessed as necrotic cells at 9 uM incubated for 24 hrs by annexin V-FITC and propidium iodide staining based flow cytometry analysis (reference value: 0.4 %); format: functional
[11] = system: A549; assay: Induction of apoptosis in human A549 cells assessed as late apoptotic cells at 9 uM incubated for 24 hrs by annexin V-FITC and propidium iodide staining based flow cytometry analysis (reference value: 1.4 %); format: functional
[12] = AUC (0 to infinity) in rat at 5 mg/kg, ig; format: ADME, organism-based; set-up: route […], time infinity, dose 5 mg/kg; conditions: in vivo, po
[13] = system: Mus musculus; assay: Inhibition of phosphorylated STAT3 levels in tumor tissue of nude mouse xenografted with human A549 cells at 10 to 20 mg/kg, ip administered daily for 21 days by western blot analysis; format: functional, organism-based; conditions: dose 10-20 mg/kg, time 21.0 day
[14] = system: A549; assay: Antiproliferative activity against human A549 cells assessed as cell growth inhibition measured after 24 hrs by MTT assay; format: functional, cell-based; conditions: A549, 24 h
[15] = Mean residence time in rat at 0.5 mg/kg, iv; format: ADME, organism-based; conditions: in vivo
[16] = target: T2, Estrogen receptor (Homo sapiens, UniProt P03372); assay: Binding affinity to ERalpha (unknown origin) by SPR assay
T2 sequence (P03372 whole entry): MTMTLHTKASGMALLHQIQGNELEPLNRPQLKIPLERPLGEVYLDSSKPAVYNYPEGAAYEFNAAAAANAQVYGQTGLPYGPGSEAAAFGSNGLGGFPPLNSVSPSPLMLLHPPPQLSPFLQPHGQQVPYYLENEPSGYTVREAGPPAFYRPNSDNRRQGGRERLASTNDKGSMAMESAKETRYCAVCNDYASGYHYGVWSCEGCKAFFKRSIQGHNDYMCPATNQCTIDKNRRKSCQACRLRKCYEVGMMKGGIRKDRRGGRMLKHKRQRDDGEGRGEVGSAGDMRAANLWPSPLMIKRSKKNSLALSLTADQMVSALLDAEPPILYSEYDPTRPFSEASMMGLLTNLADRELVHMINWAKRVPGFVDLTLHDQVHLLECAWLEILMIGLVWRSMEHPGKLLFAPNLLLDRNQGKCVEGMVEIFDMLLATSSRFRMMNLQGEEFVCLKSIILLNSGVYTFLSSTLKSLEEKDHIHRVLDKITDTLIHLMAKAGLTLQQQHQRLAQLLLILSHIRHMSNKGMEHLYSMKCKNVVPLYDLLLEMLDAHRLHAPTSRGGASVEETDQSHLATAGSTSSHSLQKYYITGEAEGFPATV

[17] = system: A549; assay: Induction of ROS generation in human A549 cells assessed as fold increase in ROS level at 6 uM after 24 hrs by DCFH-DA staining based flow cytometric analysis relative to control; format: functional
[18] = Volume of distribution in rat at 5 mg/kg, ig; format: ADME, organism-based; conditions: in vivo, po
[19] = target: T1, Interleukin-6 receptor subunit beta (Homo sapiens); assay: Inhibition of GP130 in human A549 cells assessed as reduction in STAT3 dimer DNA binding activity in nuclear extract in presence of hSIE probe at 3 to 9 uM after 24 hrs by EMSA analysis; format: subcellular; conditions: Nucleus, dose 3-9 µM
[20] = target: T1, Interleukin-6 receptor subunit beta (Homo sapiens); assay: Inhibition of GP130 in human A549 cells assessed as decrease in IL6-induced STAT3 phosphorylation at Y705 residue at 9 uM incubated for 24 hrs by western blot analysis; format: cell-based
[21] = system: A549; assay: Induction of apoptosis in human A549 cells assessed as late apoptotic cells at 3 uM incubated for 24 hrs by annexin V-FITC and propidium iodide staining based flow cytometry analysis (reference value: 1.4 %); format: functional
[22] = system: A549; assay: Induction of apoptosis in human A549 cells assessed as viable cells at 3 uM incubated for 24 hrs by annexin V-FITC and propidium iodide staining based flow cytometry analysis (reference value: 97.7 %); format: functional; conditions: read-out: Activity

For `NC(=O)N1N=C(c2ccc(C(F)(F)F)cc2)CC1c1cn(Cc2ccc(OCCN3CCCCCC3)cc2)c2ccc(Br)cc12` (configuration not stated), the “fold change (FC)” value [1] was 6.28, the Activity [2] was 4.9% and the Activity [3] was 3.1%. The inhibition [4] was “Dose-dependent effect”, the half-life [5] was 11.8 h and the Activity [6] was “Active”. The Activity [7] was “Active”, the Vd [8] was 14.6 L/kg and the MRT [9] was 11.6 h. The Activity [10] was 2.6%, the Activity [11] was 33% and the AUC [12] was 329.9 ng·h/mL. For the same compound, the inhibition [13] was “Active”, the IC50 [14] was 4.46 µM and the MRT [15] was 13.7 h. For the same compound, the Kd [16] was 47.2 µM, the “fold change (FC)” value [17] was 4.09 and the Vd [18] was 12.6 L/kg. The inhibition [19] was “Active”, the Activity [20] was “Active” and the Activity [21] was 2.5%. It also gave a viability at 3 µM [22] of 96.3%.

Source: ChEMBL document CHEMBL4680259, “Discovery of bazedoxifene analogues targeting glycoprotein 130” (Eur J Med Chem, 2020)
